Reference: US20260137697A1, “THIAZOLO[5,4-D]PYRIMIDINE COMPOUNDS, COMPOSITIONS COMPRISING THEM AND USES THEREOF” (University de Montreal, priority 2022, published 2026)
pIC50: −log10 of the molar value.

Experiments:
pERK, HCT116 cells = experiment: Phospho-ERK inhibition, AlphaLISA p-ERK 1/2, HCT-116; assay type: cell-based, human; conditions: Table 3; for pIC50: HCT116 cells (KRAS G13D), 1 h treatment; for HCT116 pERK (Ymin %): lowest % inhibition value of the pERK IC50 curve, above −20% = no paradoxical induction
Experimental: All cancer cell lines (A375, A101D, A2058, RKO, HT29 SK-MEL 30, IPC298, HepG2, HCT-116, Lovo, SW620, SW480, NCI-H358, NCI-H2122, Calu-6, NCIH2087, NCIH1755, NCIH1666 and Mewo) were obtained from ATCC and cultured in RPM1-1640 medium (Gibco) supplemented with 5% heat inactivated fetal bovine serum (FBS, Wisent) at 37° C. under 5% CO2. Cells were maintained in T175 flasks (Greiner). They were passaged by removing the culture medium, washing once in 10 mL of room temperature Phosphate Buffered Saline (PBS; Wisent) and incubating at 37° C. with 2 mL of 0.05% Trypsin (Thermo-Fisher). Trypsin was then inactivated by adding complete growth medium and the cells were then replated in a T175 culture dish at the appropriate dilution. All cell lines were routinely tested for mycoplasma contamination. Tissue type and mutational status of each cell line can be found in Table B.
(c) Measurement of Phospho-ERK Inhibition in Cultivated Human Cancer Cell Lines by the AlphaLISA® SureFire® Ultra™ p-ERK 1/2 (Thr2O2/Tyr204)
AlphaLISA® SureFire® Ultra™ p-ERK 1/2 (Thr202/Tyr204) analysis was conducted on cells plated in 100 μL of complete RPMI-1640 growth medium in 96-well flat-bottomed transparent dishes (Costar) at a density indicated in Table C. Cells were maintained overnight at 37° C. under 5% CO2 before treatment with compounds' dilution series for one hour. The cell density in cells/cm^2 corresponds to cell number divided by the area of one well of a 96-well plate (0.143 cm^2).
In a dilution series 100 μL/well of test substance dilution prepared in complete RPMI-1640 growth media was added to the cells. The dilution series is selected so that ten concentrations cover a range from 10 μM to 0.33 nM. If necessary, the initial concentration of 10 μM is increased to 100 μM or lowered to 1 μM (as in the case of A375 and H1666 cells, which are generally more sensitive to the compounds) and further dilution is carried out accordingly. The final concentration of DMSO in the assay is set at 0.5%.
After treatment, media was removed, and cells were lysed in 50 μL of 1× AlphaScreen Ultra Lysis Buffer (Perkin Elmer). The AlphaLISA® SureFire® Ultra™ p-ERK 1/2 (Thr202/Tyr204) (PerkinElmer) reactions were performed with 5 μL of cell lysate according to the manufacturer's specifications in 384-well proxyplates (Perkin Elmer) followed by overnight incubation of the reactions at room temperature in a humidified chamber. After completion of the reactions, the signals were recorded on an EnVision plate reader (Perkin Elmer) using built in AlphaLISA® settings.
The effect of each compound dilution on the pERK signal was expressed in % inhibition and calculated as follows. An internal 100% inhibition control (1 μM trametinib, cat. No. HY-10999; MedChem Express; CAS No. 871700-17-3) was included in each plate and used as a measure of pERK background. First, the value obtained for trametinib was subtracted from each data point. The average of DMSO (vehicle) controls (set as 0% inhibition) was established and used to calculate % inhibition:
The ability of each compound to inhibit pERK signal was expressed as an IC50 value obtained by plotting the inhibition values for each data point of a dilution series and fitting the obtained curves using a log(agonist) versus response—variable slope (four parameters) function using GraphPadPrism (V7.0) or Dotmatics Screening Ultra platform.
When present, paradoxical pERK induction is inferred from the negative % inhibition values observed in the pERK IC50 curves of a compound.

CRAF = molecular target: T1, CRAF (Homo sapiens, UniProt P04049); experiment: CRAF kinase activity assay (ADP-Glo); assay type: biochemical; conditions: Table 3; 10 μM ATP, kinase-dead MEK1 substrate
T1 construct: fused on or other part: GST tag (N-terminal according to the vendor's product)
Experimental: (§1) Compound preparation: solid samples of each substance in 1dram vials were suspended in DMSO (Fisher Scientific) at a stock concentration of 20 mM. Stocks were kept at −20° C. and protected from light. If solubility of the compound at 20 mM appeared to be an issue, the initial concentration of the DMSO stock was changed to 10 mM or 5 mM.
(§2) In vitro enzymatic reactions were used for evaluating compounds intrinsic activity against BRAF, CRAF and ARAF. For BRAF and CRAF, 0.375 nM of purified GST-tagged kinases (cat. No. B4062-10UG and cat. No. R1656-10UG respectively from Millipore Sigma) were incubated with 75 nM of kinase-dead MEK1 substrate (cat. No. 40075; BPS Bioscience) in the presence of 10 μM of Ultrapure ATP (cat. No. V9102; Promega; part V915A) with and without the test compound in a buffer containing 50 mM HEPES pH 7.5, 10 mM MgCl2, 1 mM EDTA, 0.01% Brij-35 and 2 mM DTT. Separate reactions were performed with the MEK1 substrate and ATP as a blank control. ARAF kinase reactions were rigorously the same with the exception that kinase concentration was raised to 3.75 nM (cat. No. 1768-0000-1; Reaction Biology).
(§3) For compound treatment, 5 μL/well of test substance solution are placed in a 384-well proxyplate (Perkin Elmer) and mixed with 2× concentrated kinase reactions. The dilution series is selected so that nine concentrations cover a range from 100 nM to 0.01 nM. […] The final concentration of DMSO in the assay is set at 0.05%.
(§4) BRAF and CRAF kinase reactions were carried out for a total of 2 hours at 30° C. and then stopped by 1/2 dilution in ADP-Glo Reagent (cat. No. V9102; Promega; part V912C). Reactions were then incubated for 1 h at room temperature before addition of one volume of Kinase Detection Reagent (cat. No. V9102; Promega; part V917A). Plates were then equilibrated at room temperature for 30 minutes before detection of luminescence on a Synergy Neo2 plate reader (Biotek). The effect of each compound dilution on BRAF and CRAF kinase activity was expressed as % inhibition and calculated as follows. First, the internal 100% inhibition control (average of luminescence in kinase reactions comprising kinase dead MEK1 substrate alone) was subtracted from each data point. The average of DMSO (vehicle) controls (set as 0% inhibition) was established and used to calculate % inhibition:
(§5) IC50 values were obtained by plotting the kinase inhibition values and fitting the dose-activity curves using a log(agonist) versus response—variable slope (four parameters) function using either GraphPadPrism (V7.0) or Dotmatics Screening Ultra platform. Standards included in the ARAF kinase assay were Belvarafenib (MedChem Express cat. No. HY-109080; CAS No. 1446113-23-0), LXH254 (MedChem Express cat. No. HY-112089; CAS No. 1800398-38-2) and BGB283 (cat. No. HY-18957; CAS No. 1446090-79-4).

BRAF = molecular target: T2, BRAF (Homo sapiens, UniProt P15056); experiment: BRAF kinase activity assay (ADP-Glo); assay type: biochemical; conditions: Table 3; 10 μM ATP, kinase-dead MEK1 substrate
T2 construct: GST; purchased Millipore Sigma B4062-10UG
Experimental: as §1, §2, §3, §4, §5

T2 sequence (P15056 whole entry): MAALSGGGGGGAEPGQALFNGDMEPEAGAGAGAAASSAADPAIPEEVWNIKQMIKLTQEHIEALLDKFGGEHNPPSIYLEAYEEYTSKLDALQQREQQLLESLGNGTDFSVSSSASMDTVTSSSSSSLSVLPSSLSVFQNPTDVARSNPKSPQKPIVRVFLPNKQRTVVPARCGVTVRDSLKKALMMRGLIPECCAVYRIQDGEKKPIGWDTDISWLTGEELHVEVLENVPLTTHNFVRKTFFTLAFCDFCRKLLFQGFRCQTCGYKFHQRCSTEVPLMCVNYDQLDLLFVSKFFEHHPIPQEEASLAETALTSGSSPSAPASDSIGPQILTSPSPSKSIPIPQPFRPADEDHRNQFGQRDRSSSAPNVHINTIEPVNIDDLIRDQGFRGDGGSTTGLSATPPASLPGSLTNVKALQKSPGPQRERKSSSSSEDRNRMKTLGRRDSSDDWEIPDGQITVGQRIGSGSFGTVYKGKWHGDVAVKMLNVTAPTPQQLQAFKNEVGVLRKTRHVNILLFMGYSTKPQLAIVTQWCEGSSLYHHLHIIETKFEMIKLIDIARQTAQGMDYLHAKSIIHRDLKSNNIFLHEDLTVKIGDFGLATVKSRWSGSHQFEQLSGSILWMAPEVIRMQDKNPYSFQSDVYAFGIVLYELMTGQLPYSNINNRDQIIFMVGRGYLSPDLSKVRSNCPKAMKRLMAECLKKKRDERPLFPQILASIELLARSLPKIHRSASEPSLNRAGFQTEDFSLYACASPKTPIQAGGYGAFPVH
T1 sequence (P04049 whole entry Y340E/Y341E, form open, the tested form may be a part): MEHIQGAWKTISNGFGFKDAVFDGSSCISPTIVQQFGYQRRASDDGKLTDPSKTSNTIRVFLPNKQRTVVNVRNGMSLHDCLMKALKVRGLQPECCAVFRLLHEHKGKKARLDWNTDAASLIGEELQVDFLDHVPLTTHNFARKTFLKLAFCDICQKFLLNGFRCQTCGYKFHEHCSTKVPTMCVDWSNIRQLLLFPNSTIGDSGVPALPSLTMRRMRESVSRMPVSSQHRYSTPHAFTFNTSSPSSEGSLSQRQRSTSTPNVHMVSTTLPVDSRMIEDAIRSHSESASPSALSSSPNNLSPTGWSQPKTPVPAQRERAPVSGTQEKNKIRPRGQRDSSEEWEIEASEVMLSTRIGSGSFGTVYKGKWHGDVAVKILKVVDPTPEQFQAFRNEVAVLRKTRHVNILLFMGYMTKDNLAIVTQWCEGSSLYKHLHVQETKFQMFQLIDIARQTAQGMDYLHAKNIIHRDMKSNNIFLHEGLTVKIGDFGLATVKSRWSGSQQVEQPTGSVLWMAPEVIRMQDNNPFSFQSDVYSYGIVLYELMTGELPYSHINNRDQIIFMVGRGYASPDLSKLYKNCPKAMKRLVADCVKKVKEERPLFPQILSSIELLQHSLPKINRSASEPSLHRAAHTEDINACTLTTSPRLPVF

Structure (SMILES) | pIC50 (pERK, HCT116 cells; Homo sapiens, HCT-116) | pIC50 (CRAF) | pIC50 (BRAF) | pIC50 (pERK, HCT116 cells) | HCT116 pERK (Ymin %) (pERK, HCT116 cells) [%]
Cc1c(F)cccc1S(=O)(=O)Nc1ccc(F)c(Nc2ncnc3sc(-n4nc(C(=O)N(C)Cc5cccnc5)c5ccccc54)nc23)c1F [Example 23] | 5.00 to 6.00 | < 7.30 | < 8.00 | – | –
Cc1c(F)cccc1S(=O)(=O)Nc1ccc(F)c(Nc2ncnc3sc(-n4nc(C(=O)NCc5cccnc5)c5ccccc54)nc23)c1F [Example 24] | – | 7.30 to 8.00 | < 8.00 | 6.00 to 6.30 | 2
Cc1c(F)cccc1S(=O)(=O)Nc1ccc(F)c(Nc2ncnc3sc(-n4nc(C(=O)N(C)CCc5ccccn5)c5ccccc54)nc23)c1F [Example 25] | – | < 7.30 | < 8.00 | 5.00 to 6.00 | 2
COCCN(C)C(=O)c1nn(-c2nc3c(Nc4c(F)ccc(NS(=O)(=O)c5cccc(F)c5C)c4F)ncnc3s2)c2ccccc12 [Example 26] | – | < 7.30 | < 8.00 | 5.00 to 6.00 | −13
Cc1c(F)cccc1S(=O)(=O)Nc1ccc(F)c(Nc2ncnc3sc(-n4nc(C(=O)N(C)CCN(C)C)c5ccccc54)nc23)c1F [Example 27] | – | 7.30 to 8.00 | 8.00 to 9.00 | 6.00 to 6.30 | −3
Cc1c(F)cccc1S(=O)(=O)Nc1ccc(F)c(Nc2ncnc3sc(-n4cc(C(=O)N(C)CCc5ccccn5)c5ccccc54)nc23)c1F [Example 28] | > 6.30 | 7.30 to 8.00 | 8.00 to 9.00 | – | –
Cc1c(F)cccc1S(=O)(=O)Nc1ccc(F)c(Nc2ncnc3sc(-n4cc(C(=O)NCc5cccnc5)c5ccccc54)nc23)c1F [Example 29] | – | < 7.30 | < 8.00 | 6.00 to 6.30 | 5
Cc1c(F)cccc1S(=O)(=O)Nc1ccc(F)c(Nc2ncnc3sc(-n4cc(C(=O)N(C)Cc5ccncc5)c5ccccc54)nc23)c1F [Example 30] | – | 7.30 to 8.00 | 8.00 to 9.00 | > 6.30 | −3
Cc1c(F)cccc1S(=O)(=O)Nc1ccc(F)c(Nc2ncnc3sc(-n4cc(C(=O)N(C)Cc5cccnc5)c5ccccc54)nc23)c1F [Example 31] | – | > 8.00 | 8.00 to 9.00 | 6.00 to 6.30 | 7
Cc1c(F)cccc1S(=O)(=O)Nc1ccc(F)c(Nc2ncnc3sc(-n4nc(C(=O)N5CCC(CO)C5)c5ccccc54)nc23)c1F (stereo not shown) [Example 32] | – | 7.30 to 8.00 | 8.00 to 9.00 | 5.00 to 6.00 | −13
Cc1c(F)cccc1S(=O)(=O)Nc1ccc(F)c(Nc2ncnc3sc(-n4cc(C(=O)N5CCC(CO)C5)c5ccccc54)nc23)c1F (stereo not shown) [Example 33] | – | > 8.00 | > 9.00 | > 6.30 | −7
Cc1c(F)cccc1S(=O)(=O)Nc1ccc(F)c(Nc2ncnc3sc(-n4nc(C(=O)N5C6CCC5COC6)c5ccccc54)nc23)c1F [Example 34] | – | 7.30 to 8.00 | < 8.00 | 5.00 to 6.00 | −13
Cc1c(F)cccc1S(=O)(=O)Nc1ccc(F)c(Nc2ncnc3sc(-n4cnc5c(F)cccc54)nc23)c1F [Example 35] | – | > 8.00 | 8.00 to 9.00 | > 6.30 | −8
Cc1c(Cl)cccc1S(=O)(=O)Nc1ccc(F)c(Nc2ncnc3sc(-n4cnc5c(F)cccc54)nc23)c1F [Example 36] | – | 7.30 to 8.00 | 8.00 to 9.00 | 5.00 to 6.00 | −13
O=S(=O)(Nc1ccc(F)c(Nc2ncnc3sc(-n4cnc5ccccc54)nc23)c1F)c1ccccc1Cl [Example 37] | – | > 8.00 | 8.00 to 9.00 | > 6.30 | −11
O=S(=O)(Nc1ccc(F)c(Nc2ncnc3sc(-n4cnc5c(F)cccc54)nc23)c1F)c1ccccc1Cl [Example 38] | – | > 8.00 | 8.00 to 9.00 | 6.00 to 6.30 | −6
Cc1c(F)cccc1S(=O)(=O)Nc1ccc(F)c(Nc2ncnc3sc(-n4nc(C(=O)N(C)CCN(C)C)c5ccccc54)nc23)c1F [Example 39] | – | > 8.00 | > 9.00 | > 6.30 | −12
Cc1c(F)cccc1S(=O)(=O)Nc1ccc(F)c(Nc2ncnc3sc(-n4cc(C(=O)N5C6CCC5COC6)c5ccccc54)nc23)c1F [Example 40] | – | > 8.00 | > 9.00 | > 6.30 | −7
CN(C)CCN(C)S(=O)(=O)c1cn(-c2nc3c(Nc4c(F)ccc(NS(=O)(=O)c5cccc(Cl)c5Cl)c4F)ncnc3s2)c2ccccc12 [Example 41] | – | > 8.00 | > 9.00 | > 6.30 | 0
Cc1c(F)cccc1S(=O)(=O)Nc1ccc(F)c(Nc2ncnc3sc(-n4nc(C(=O)N5C6CCC5CN(C)C6)c5ccccc54)nc23)c1F [Example 42] | – | 7.30 to 8.00 | < 8.00 | 6.00 to 6.30 | 2
COCCN(C)C(=O)c1cn(-c2nc3c(Nc4c(F)ccc(NS(=O)(=O)c5cccc(F)c5C)c4F)ncnc3s2)c2ccccc12 [Example 43] | – | > 8.00 | > 9.00 | > 6.30 | 9
